Tests used:
Assay type in all cases: in vivo
[1] = system: ALOMY (Alopecurus myosuroides); assay: post-emergence greenhouse test
From the text: (§1) For the post-emergence treatment, the test plants were first grown to a height of 3 to 20 cm, depending on the plant habit, and only then treated. Here, the herbicidal compositions were suspended or emulsified in water as distribution medium and sprayed using finely distributing nozzles.
(§2) The respective herbicides A and/or safener were formulated as 10% by weight strength suspension concentrate and introduced to the spray liquor with the amount of solvent system used for applying the active compound. Herbicide B and/or safener were used as commercially available formulations and introduced to the spray liquor with the amount of solvent system used for applying the active compound. In the examples, the solvent used was water.
(§3) The test period extended over 20 days. During this time, the plants were tended, and their response to the treatments with active compound was evaluated.
(§4) In the following experiments, the herbicidal activity for the individual herbicide compounds (solo application) and of the mixture was assessed 8 days after treatment (8 DAT) and/or 20 days after treatment (20 DAT).
(§5) The evaluation for the damage caused by the chemical compositions was carried out using a scale from 0 to 100%, compared to the untreated control plants. Here, 0 means no damage and 100 means complete destruction of the plants.

[2] = system: CHEAL (Chenopodium album); assay: post-emergence greenhouse test; conditions: 15 g ai/ha
From the text: as §1, §2, §3, §4, §5

[3] = system: ECHCG (Echinochloa crus-galli); assay: pre-emergence greenhouse test
From the text: (§6) For the pre-emergence treatment, directly after sowing the active compounds, which had been suspended or emulsified in water, were applied by means of finely distributed nozzles. The containers were irrigated gently to promote germination and growth and subsequently covered with transparent plastic hoods until plant had rooted. This cover caused uniform germination of the tests plants, unless this was adversely affected by active compounds.
as §2, §3, §4, §5

[4] = system: AMBEL (Ambrosia artemisifolia); assay: pre-emergence greenhouse test; conditions: for observed activity in % destruction: pre-emergence, 15 g ai/ha
From the text: as §6, §2, §3, §4, §5

PHBPU (Ipomoea purpurea) = assay: pre-emergence greenhouse test
From the text: as §6, §2, §3, §4, §5

[5] = system: AMARE (Amaranthus retroflexus); assay: pre-emergence greenhouse test
From the text: as §6, §2, §3, §4, §5

SETVI (Setaria viridis) = assay: pre-emergence greenhouse test
From the text: as §6, §2, §3, §4, §5

[6] = system: ALOMY (Alopecurus myosuroides); assay: pre-emergence greenhouse test; conditions: for observed activity in % destruction: pre-emergence, 7.5 g ai/ha
From the text: as §6, §2, §3, §4, §5

[7] = system: COMBE (Commelina benghalensis); assay: pre-emergence greenhouse test; conditions: for observed activity in % destruction: pre-emergence
From the text: as §6, §2, §3, §4, §5

[8] = system: PANMI (Panicum milliaceum); assay: pre-emergence greenhouse test
From the text: as §6, §2, §3, §4, §5

[9] = system: PANDI (Panicum dichotomiflorum); assay: pre-emergence greenhouse test; conditions: PANDI pre-emergence 7.5 g ai/ha
From the text: as §6, §2, §3, §4, §5

SETFA (Setaria faberii) = assay: pre-emergence greenhouse test
From the text: as §6, §2, §3, §4, §5

SOLNI (Solanum nigrum) = assay: pre-emergence greenhouse test; conditions: for observed activity in % destruction: pre-emergence, 7.5 g ai/ha
From the text: as §6, §2, §3, §4, §5

[10] = system: BRAPL (Brachiaria plantaginea); assay: pre-emergence greenhouse test; conditions: BRAPL pre-emergence 7.5 g ai/ha
From the text: as §6, §2, §3, §4, §5

ERBVI = assay: pre-emergence greenhouse test
From the text: as §6, §2, §3, §4, §5

[11] = ECHCG pre-emergence 7.5 g ai/ha
[12] = AMARE pre-emergence 3.75 g ai/ha
[13] = AMARE pre-emergence 7.5 g ai/ha
[14] = SETVI pre-emergence 3.75 g ai/ha
[15] = ALOMY pre-emergence 3.75 g ai/ha
[16] = ALOMY pre-emergence 7.5 g ai/ha
[17] = COMBE pre-emergence 3.75 g ai/ha
[18] = COMBE pre-emergence 7.5 g ai/ha
[19] = SOLNI pre-emergence 7.5 g ai/ha

## COCc1cnc(C2=NC(C)(C(C)C)C(=O)N2)c(C(=O)O)c1 (stereo not shown) [imazamox]
[1]; 3.75 g ai/ha, 8 DAT
  observed activity in % destruction: 25%
[1]; 3.75 g ai/ha, 20 DAT
  observed activity in % destruction: 30%
[1]; 7.5 g ai/ha, 8 DAT
  observed activity in % destruction: 35%
[1]; 7.5 g ai/ha, 20 DAT
  observed activity in % destruction: 35%
[2]; 8 DAT
  observed activity in % destruction: 0%
[2]; 20 DAT
  observed activity in % destruction: 0%
[3]; ECHCG pre-emergence 3.75 g ai/ha
  observed % destruction 20 DAT: 0%
[3]; [11]
  observed % destruction 8 DAT: 20%
  observed % destruction 20 DAT: 10%
[3]; ECHCG pre-emergence 15 g ai/ha
  observed % destruction 8 DAT: 60%
  observed % destruction 20 DAT: 75%
[4]; AMBEL pre-emergence 15 g ai/ha
  observed % destruction 8 DAT: 50%
  observed % destruction 20 DAT: 80%
[4]; 8 DAT
  observed activity in % destruction: 50%
[4]; 20 DAT
  observed activity in % destruction: 80%
PHBPU (Ipomoea purpurea); PHBPU pre-emergence 7.5 g ai/ha
  observed % destruction 20 DAT: 20%
PHBPU (Ipomoea purpurea); PHBPU pre-emergence 15 g ai/ha
  observed % destruction 20 DAT: 70%
[5]; [12]
  observed % destruction 8 DAT: 20%
  observed % destruction 20 DAT: 30%
[5]; [13]
  observed % destruction 8 DAT: 55%
  observed % destruction 20 DAT: 80%
[5]; AMARE pre-emergence 15 g ai/ha
  observed % destruction 8 DAT: 65%
  observed % destruction 20 DAT: 95%
SETVI (Setaria viridis); [14]
  observed % destruction 8 DAT: 0%
  observed % destruction 20 DAT: 20%
SETVI (Setaria viridis); SETVI pre-emergence 7.5 g ai/ha
  observed % destruction 20 DAT: 90%
SETVI (Setaria viridis); SETVI pre-emergence 15 g ai/ha
  observed % destruction 8 DAT: 85%
  observed % destruction 20 DAT: 95%
[6]; [15]
  observed % destruction 8 DAT: 20%
  observed % destruction 20 DAT: 40%
[6]; [16]
  observed % destruction 8 DAT: 30%
  observed % destruction 20 DAT: 40%
[6]; ALOMY pre-emergence 15 g ai/ha
  observed % destruction 8 DAT: 50%
  observed % destruction 20 DAT: 80%
[6]; 8 DAT
  observed activity in % destruction: 30%
[6]; 20 DAT
  observed activity in % destruction: 40%
[7]; [17]
  observed % destruction 8 DAT: 20%
  observed % destruction 20 DAT: 30%
[7]; [18]
  observed % destruction 8 DAT: 40%
  observed % destruction 20 DAT: 35%
[7]; COMBE pre-emergence 15 g ai/ha
  observed % destruction 8 DAT: 50%
  observed % destruction 20 DAT: 75%
[7]; 3.75 g ai/ha, 8 DAT
  observed activity in % destruction: 20%
[7]; 3.75 g ai/ha, 20 DAT
  observed activity in % destruction: 30%
[7]; 7.5 g ai/ha, 8 DAT
  observed activity in % destruction: 40%
[7]; 7.5 g ai/ha, 20 DAT
  observed activity in % destruction: 35%
[8]; PANMI pre-emergence 3.75 g ai/ha
  observed % destruction 20 DAT: 20%
[8]; PANMI pre-emergence 7.5 g ai/ha
  observed % destruction 20 DAT: 30%
[9]
  observed % destruction 8 DAT: 20%
  observed % destruction 20 DAT: 75%
SETFA (Setaria faberii); SETFA pre-emergence 3.75 g ai/ha
  observed % destruction 20 DAT: 30%
SETFA (Setaria faberii); SETFA pre-emergence 7.5 g ai/ha
  observed % destruction 20 DAT: 60%
SETFA (Setaria faberii); SETFA pre-emergence 15 g ai/ha
  observed % destruction 20 DAT: 85%
SOLNI (Solanum nigrum); SOLNI pre-emergence 3.75 g ai/ha
  observed % destruction 20 DAT: 20%
SOLNI (Solanum nigrum); [19]
  observed % destruction 8 DAT: 30%
  observed % destruction 20 DAT: 80%
SOLNI (Solanum nigrum); SOLNI pre-emergence 15 g ai/ha
  observed % destruction 20 DAT: 85%
SOLNI (Solanum nigrum); 8 DAT
  observed activity in % destruction: 30%
SOLNI (Solanum nigrum); 20 DAT
  observed activity in % destruction: 80%
[10]
  observed % destruction 8 DAT: 0%
  observed % destruction 20 DAT: 45%
ERBVI; ERBVI pre-emergence 3.75 g ai/ha
  observed % destruction 20 DAT: 0%
ERBVI; ERBVI pre-emergence 7.5 g ai/ha
  observed % destruction 20 DAT: 0%
ERBVI; ERBVI pre-emergence 15 g ai/ha
  observed % destruction 20 DAT: 20%

Reference: patent publication US20110015067A1, “Herbicidal Compositions Comprising Pyroxasulfone” (BASF SE, priority 2008, published 2011)
